Assay results as given in US20260138961A1, “MODULATORS OF MITOCHONDRIAL DNA REPLICATION” (Pretzel Therapeutics, Inc., priority 2022, published 2026).

What follows are compounds tested against T1, POLγA:A467T (Homo sapiens, UniProt P54098, A467T) (assay: DNA polymerization assay, POLγA:A467T mutant). Conditions: stimulation of polymerase activity, primed M13mp18 ssDNA, 37° C. 2 hours; read-out: A467T AC50.
T1 sequence (P54098 1-1239 A467T): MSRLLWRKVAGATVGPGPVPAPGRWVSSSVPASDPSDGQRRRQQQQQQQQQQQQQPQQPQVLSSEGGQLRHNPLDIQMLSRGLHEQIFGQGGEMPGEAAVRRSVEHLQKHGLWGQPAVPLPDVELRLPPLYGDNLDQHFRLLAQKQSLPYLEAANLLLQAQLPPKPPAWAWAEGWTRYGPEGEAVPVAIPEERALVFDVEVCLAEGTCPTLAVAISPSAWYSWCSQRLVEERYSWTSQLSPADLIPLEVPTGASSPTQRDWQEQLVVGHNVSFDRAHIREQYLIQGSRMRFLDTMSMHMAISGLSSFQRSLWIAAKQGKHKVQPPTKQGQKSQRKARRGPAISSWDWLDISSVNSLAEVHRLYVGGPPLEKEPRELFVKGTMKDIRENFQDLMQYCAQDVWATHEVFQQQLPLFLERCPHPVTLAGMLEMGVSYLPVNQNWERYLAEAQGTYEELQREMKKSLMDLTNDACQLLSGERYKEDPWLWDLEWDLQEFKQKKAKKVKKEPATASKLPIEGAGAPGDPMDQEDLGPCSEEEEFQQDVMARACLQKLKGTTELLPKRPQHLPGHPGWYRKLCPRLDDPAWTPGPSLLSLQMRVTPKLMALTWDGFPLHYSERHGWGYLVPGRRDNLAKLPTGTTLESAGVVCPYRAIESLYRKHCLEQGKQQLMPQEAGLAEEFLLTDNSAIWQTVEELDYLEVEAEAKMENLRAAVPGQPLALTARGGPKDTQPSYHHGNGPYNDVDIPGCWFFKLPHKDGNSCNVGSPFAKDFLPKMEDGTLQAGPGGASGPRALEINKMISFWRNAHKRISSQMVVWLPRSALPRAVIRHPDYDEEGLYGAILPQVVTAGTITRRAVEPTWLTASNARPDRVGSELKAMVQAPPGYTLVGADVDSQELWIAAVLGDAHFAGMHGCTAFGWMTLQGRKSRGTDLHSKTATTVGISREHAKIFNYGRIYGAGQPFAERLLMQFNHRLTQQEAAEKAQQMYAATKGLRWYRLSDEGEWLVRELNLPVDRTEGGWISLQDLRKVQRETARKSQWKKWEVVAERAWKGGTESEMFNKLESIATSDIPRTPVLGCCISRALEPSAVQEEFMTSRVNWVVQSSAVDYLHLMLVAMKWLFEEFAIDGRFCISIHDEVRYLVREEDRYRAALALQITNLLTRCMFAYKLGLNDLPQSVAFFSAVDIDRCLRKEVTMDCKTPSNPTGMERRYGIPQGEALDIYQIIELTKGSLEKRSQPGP
T1 sequence (Q9UHN1 1-485 partner): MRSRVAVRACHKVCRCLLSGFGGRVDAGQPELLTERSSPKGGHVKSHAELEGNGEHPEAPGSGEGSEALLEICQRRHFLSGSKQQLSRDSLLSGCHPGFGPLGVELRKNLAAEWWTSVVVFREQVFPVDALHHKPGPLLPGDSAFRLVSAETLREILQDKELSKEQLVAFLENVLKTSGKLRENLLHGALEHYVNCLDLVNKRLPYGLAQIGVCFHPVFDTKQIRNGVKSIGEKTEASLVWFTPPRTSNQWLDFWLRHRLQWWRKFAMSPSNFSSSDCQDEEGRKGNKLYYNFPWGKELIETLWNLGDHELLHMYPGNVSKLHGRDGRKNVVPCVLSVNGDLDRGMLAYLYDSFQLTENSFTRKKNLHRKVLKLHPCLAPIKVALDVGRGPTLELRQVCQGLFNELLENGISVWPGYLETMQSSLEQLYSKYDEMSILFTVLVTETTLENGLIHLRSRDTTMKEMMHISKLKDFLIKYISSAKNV
Type: biochemical
Procedure: DNA Polymerization Assay to Monitor Effects on Human Wildtype POLγ and Four Disease-Causing Mutant Variants of Human POLγ.
The ability of small molecules to stimulate the polymerase activity of POLγ was analyzed in a quantitative fluorescence SYBR Green I assay with fluorescence intensity (FI) readout.
In the presence of dNTPs, wild type human POLγ and mutant derivatives thereof were incubated with single-stranded, circular M13mp18 ssDNA hybridized to a short DNA oligonucleotide that functions as a primer for initiation of DNA synthesis. POLγ and mutant derivatives thereof will extend the primer and use the M13mp18 molecule as a template to synthesize long stretches of double-stranded DNA. SYBR Green I, which is a double-stranded DNA-binding dye, was used to quantify formation of double-stranded DNA in the reaction. When bound to double-stranded DNA, SYBR Green I fluorescence increases by up to 100-fold.
The assay was performed in the 384-well plate format. Upon addition of compounds, changes in double-stranded DNA synthesis activity can be monitored by following effects on fluorescent intensity.
The reactions also contained the accessory POLγB subunit, and the human mitochondrial single-stranded DNA binding protein (mtSSB).
The DNA template mixture used in the assay contained 0.5 nM primed M13 mp18 ssDNA, 400 nM mtSSB, 0.1 mM Tris-HCl (pH 8.0), 0.1 mM dNTP, 10 mM MgCl2, 0.1 mg/mL BSA, 1 mM TCEP solution, and 0.02% Triton X-100. The DNA template mixture for the wild type protein contained either 100 μM dNTP, 1 μM dNTP, or 0.1 μM dNTP, designated in Table 2 as 100 μM, 1 μM, and 0.1 μM, respectfully.
Microplates with compounds (0.1 μL in each well) to be tested in the assay were prepared from 10 mM compound stocks in 100% DMSO, and equal amounts of DMSO without any compound were added to positive and negative control wells.
The protein mixture was dispensed (5 μL into each well) into compound plates and incubated at 37° C. for 15 minutes. After incubation, 5 μL of the DNA template mixture was dispensed into each well. The plates were then incubated at 37° C. for 2 hours.
During incubation, a combined stop buffer and detection reagent solution was prepared. The buffer contained 25 mM EDTA (pH 8.0), 0.02% Triton X-100, and SYBR Green I [Invitrogen] diluted 10,000× (for fluorescent readout). EDTA will stop the enzymatic reaction by chelating magnesium ions.

Compound | AC50 [µM]
Cc1cc(S(=O)(=O)Nc2cccc(C(=O)N3CCC[C@@H]3C)c2)c(C)cc1Cl [Example 133, (S)-4-chloro-2,5-dimethyl-N-(3-(2-methylpyrrolidine-1-carbonyl)phenyl)benzenesulfonamide] | > 100
Cc1cc(S(=O)(=O)Nc2csc(-c3ccccc3)n2)ccc1Cl [Example 148, 4-chloro-3-methyl-N-(2-phenylthiazol-4-yl)benzenesulfonamide] | > 100
Cc1cc(S(=O)(=O)Nc2cccc(C(=O)N3CCCC[C@H]3C)c2)c(C)cc1Cl [Example 9, (R)-4-chloro-2,5-dimethyl-N-(3-(2-methylpiperidine-1-carbonyl)phenyl)benzenesulfonamide] | 18
Cc1cc(S(=O)(=O)Nc2cccc(C(=O)NCc3ccccc3)c2)c(C)cc1Cl [Example 11, N-benzyl-3-((4-chloro-2,5-dimethylphenyl)sulfonamido)benzamide] | 49
Cc1cc(S(=O)(=O)Nc2cccc(C(=O)N3CCCC4(CC4)C3)c2)c(C)cc1Cl [Example 105, N-(3-(5-azaspiro[2.5]octane-5-carbonyl)phenyl)-4-chloro-2,5-dimethylbenzenesulfonamide] | > 100
Cc1cc(S(=O)(=O)Nc2cccc(C(=O)N3CCC[C@H]3CO)c2)c(C)cc1Cl [Example 145, (S)-4-chloro-N-(3-(2-(hydroxymethyl)pyrrolidine-1-carbonyl)phenyl)-2,5-dimethylbenzenesulfonamide] | > 100
O=S(=O)(Nc1csc(-c2ccccc2)n1)c1ccc(C(F)(F)F)cc1F [Example 141, 2-fluoro-N-(2-phenylthiazol-4-yl)-4-(trifluoromethyl)benzenesulfonamide] | > 100
Cc1cc(S(=O)(=O)N[C@@H]2CCCN(c3ccccc3)C2)c(C)cc1Cl [Example 149, (R)-4-chloro-2,5-dimethyl-N-(1-phenylpiperidin-3-yl)benzenesulfonamide] | > 100
O=S(=O)(Nc1csc(-c2ccccc2)n1)c1ccc(F)c(F)c1 [Example 122, 3,4-difluoro-N-(2-phenylthiazol-4-yl)benzenesulfonamide] | > 100
Cc1cc(S(=O)(=O)Nc2cccc(C(=O)N3CCc4cn[nH]c4C3)c2)c(C)cc1Cl [Example 107, 4-chloro-2,5-dimethyl-N-(3-(4,5,6,7-tetrahydro-1H-pyrazolo[3,4-c]pyridine-6-carbonyl)phenyl)benzenesulfonamide] | 28
O=S(=O)(Nc1csc(-c2ccccc2)n1)c1ccccc1Cl [Example 125, 2-chloro-N-(2-phenylthiazol-4-yl)benzenesulfonamide] | 8
Cc1ccc(C)c(S(=O)(=O)Nc2cccc(C(=O)N[C@@H](C)C3CC3)c2)c1 [Example 8, (S)-N-(1-cyclopropylethyl)-3-((2,5-dimethylphenyl)sulfonamido)benzamide] | 39
Cc1cc(S(=O)(=O)Nc2cccc(-c3ccn(C)n3)c2)c(C)cc1Cl [Example 18, 4-chloro-2,5-dimethyl-N-(3-(1-methyl-1H-pyrazol-3-yl)phenyl)benzenesulfonamide] | 17
Cc1cc(S(=O)(=O)N[C@H]2CCCN(C(=O)c3ccccc3)C2)c(C)cc1Cl [Example 129, (S)-N-(1-benzoylpiperidin-3-yl)-4-chloro-2,5-dimethylbenzenesulfonamide] | > 100
Cc1cnc(-c2ccc(C)c(NS(=O)(=O)c3cc(C)c(Cl)cc3C)c2)s1 [Example 98, 4-chloro-2,5-dimethyl-N-(2-methyl-5-(5-methylthiazol-2-yl)phenyl)benzenesulfonamide] | > 100
Cc1cc(S(=O)(=O)Nc2cccc(C(=O)N(C)C(C)CO)c2)c(C)cc1Cl (single isomer, unassigned) [Example 14, 3-((4-chloro-2,5-dimethylphenyl)sulfonamido)-N-(1-hydroxypropan-2-yl)-N-methylbenzamide] | 28

Now from value to compound:

AC50 [µM] | Compound
> 100 | Cc1cc(S(=O)(=O)N[C@@H]2CCCN(C(=O)N3CCCC3)C2)c(C)cc1Cl [Example 153, (R)-4-chloro-2,5-dimethyl-N-(1-(pyrrolidine-1-carbonyl)piperidin-3-yl)benzenesulfonamide]
> 100 | O=S(=O)(Nc1csc(-c2ccccc2)n1)c1cccc(C(F)(F)F)c1 [Example 151, N-(2-phenylthiazol-4-yl)-3-(trifluoromethyl)benzenesulfonamide]
24 | Cc1cc(S(=O)(=O)Nc2cccc(-c3ncc(C#N)s3)c2)c(C)cc1Cl [Example 96, 4-chloro-N-(3-(5-cyanothiazol-2-yl)phenyl)-2,5-dimethylbenzenesulfonamide]
> 100 | O=S(=O)(Nc1csc(-c2ccccc2)n1)c1ccc2ncsc2c1 [Example 137, N-(2-phenylthiazol-4-yl)benzo[d]thiazole-6-sulfonamide]
> 100 | O=S(=O)(Nc1csc(-c2ccccc2)n1)c1cccnc1 [Example 121, N-(2-phenylthiazol-4-yl)pyridine-3-sulfonamide]
> 100 | Cc1cc(S(=O)(=O)Nc2cccc(C(=O)N(C)c3ccccn3)c2)c(C)cc1Cl [Example 109, 3-((4-chloro-2,5-dimethylphenyl)sulfonamido)-N-methyl-N-(pyridin-2-yl)benzamide]
32 | Cc1cc(Cl)ccc1S(=O)(=O)Nc1csc(-c2ccccc2)n1 [Example 135, 4-chloro-2-methyl-N-(2-phenylthiazol-4-yl)benzenesulfonamide]
> 100 | Cc1cc(S(=O)(=O)Nc2cccc(-c3ncc(-c4nnn[nH]4)s3)c2)c(C)cc1Cl [Example 97, N-(3-(5-(1H-tetrazol-5-yl)thiazol-2-yl)phenyl)-4-chloro-2,5-dimethylbenzenesulfonamide]
37 | Cc1ccc(C)c(S(=O)(=O)Nc2cccc(C(=O)N3CCOCC3C#N)c2)c1 (stereo not shown) [Example 7, N-(3-(3-cyanomorpholine-4-carbonyl)phenyl)-2,5-dimethylbenzenesulfonamide]
